Earlier results on one molecule are cited in patent US20200253945A1, “DELAYED RELEASE DEFERIPRONE TABLETS AND METHODS OF USING THE SAME” (Chiesi Farmaceutici S.p.A., priority 2017, published 2020).

The conditions of data set [1]: patients who begin therapy with deferiprone.
For data set [2] the following is noted: in vivo.

With `Cc1c(O)c(=O)ccn1C` [deferiprone, Deferiprone], the “patients with gastric distress” value in data set [1] is 15-30%. In addition, the elimination half-life entry in data set [2] is “about 2 hours”.
